{"source": "patent US7348294B2", "about": "“Adsorbent and method for adsorbing cardiac glycoside” (Kaneka Corporation, priority 2000, dated 2008)", "origin": "cited, not measured here", "conditions": "octanol-water; ligand before immobilization", "data": [{"smiles": "CCCCN", "note": "[n-butylamine]", "values": [{"measurement": "log P", "result": 0.97}]}]}
